# Data reported in patent US6362160B1, “Immunophilin-binding agents prevent glutamate neurotoxicity associated with vascular stroke and neurodegenerative diseases” (The Johns Hopkins University School of Medicine, priority 1993, dated 2002).
# Assays:
# [1] = tested on: primary cerebral cortical neuronal cultures; test: cells; type: cell-based
# Protocol: Methods: Primary neuronal cultures from cortex were prepared from fetal Sprague-Dawley rats gestation day 13-14. After dissection, the cells were dissociated by trituration, counted, and plated in 15 mm multi-well (Nunc) plates coated with polyornithine at a density of 3-4×10^5 cells per well. Proliferation of non-neuronal cells was inhibited by applying 10 μg of 5-fluor-2′-deoxyuridine 4 days after plating for a total of 3 days. Neurons were maintained in modified Eagle's medium (MEM), 5% horse serum, 2 mM glutamine in 8% CO2, humidified at 37° C. Media was changed twice a week. Mature neurons (greater than 21 days in culture) were used in all experiments.
# Neurotoxicity was determined by exposing the neurons to the various test solutions as previously described (Dawson, et al., Proc. Natl. Acad. Sci., USA, 88:6368-6371 (1991)). Prior to exposure, the cells were washed 3 times with a Tris-buffered control solution (CSS) containing 120 mM NaCl, 5.4 mM KCl, 1.8 mM CaCl2, 25 mM Tris-HCl, 15 mM glucose at pH 7.4. […] Rapamycin (RAPA) was applied 5 min. prior to and during the application of FK-506 and the excitatory amino acids. Following immunosuppressant drug pretreatment, NMDA and quisqualate were applied to the cells for 5 min., then the cells were washed with CSS and replaced with MEM, 21 mM glucose for 24 hr. in the incubator. Exposures to kainate were performed in MEM, 21 mM glucose for 24 hr. in the incubator. NMDA, quisqualate, and kainate were also applied to the neurons without immunosuppressant drug pretreatment. The effect of N-Arg (L-nitroarginine) on NMDA neurotoxicity was assessed as described (Dawson, et al., Proc. Natl. Acad. Sci., USA, 88:6368-6371 (1991)). Twenty to 24 hr. after exposure to test solutions, the neurons were exposed to 0.4% trypan blue in CSS to stain the residue of non-viable cells and to assess toxicity. Viable and non-viable cells were counted with approximately 500-1,500 cells counted per well. At least two separate experiments utilizing four separate wells were performed for each data point shown. A minimum of 4,000-12,000 neurons were counted for each data point. In some experiments photomicrographs were made before and after treatment using a transparent grid at the bottom of each culture plate. Viable and non-viable neurons in identical fields were counted by an observer blinded to study design and treatment protocol.
# [2] = tested on: cGMP formation in primary neuronal cortical cultures; test: cGMP levels in primary neuronal cortical cultures; type: cell-based, rat
# Protocol: Methods: Primary neuronal cortical cultures were treated under identical conditions as those used for assessment of neurotoxicity except for the addition of 100 μM isobutylmethylxanthine (IBMX) to all wells to inhibit phosphodiesterases. […] Following ether extraction, cGMP was assayed utilizing an Amersham ^125 I-assay kit according to the manufacturer's instructions. Data represent the mean (±S.E.M.) of 6-12 wells (2-3 different plating of cultures) in duplicate. Statistical significance was determined by the Student's t-test, *p≦0.005.
# [3] = tested on: NMDA elicited Ca2+ currents; test: NMDA elicited Ca2+ currents in cortical cultures; type: cell-based, rat; settings: FK-506 500 nM (data not shown)
smiles,measurement,setting,value
C=CC[C@@H]1/C=C(\C)C[C@H](C)C[C@H](OC)[C@H]2O[C@@](O)(C(=O)C(=O)N3CCCC[C@H]3C(=O)O[C@H](/C(C)=C/[C@@H]3CC[C@@H](O)[C@H](OC)C3)[C@H](C)[C@@H](O)CC1=O)[C@H](C)C[C@@H]2OC [FK-506],% Cell Death (± S.E.M.),[1]; 100 μM Kainate + 500 nM FK-506,88.1 ± 3.8%
same,% Cell Death (± S.E.M.),[1]; 500 μM Glutamate + 500 nM FK-506,*40.6 ± 3.9%
same,% Cell Death (± S.E.M.),[1]; 500 μM NMDA + 500 pM FK-506,78.3 ± 4.7%
same,% Cell Death (± S.E.M.),[1]; 500 μM NMDA + 1 nM FK-506,77.1 ± 4.0%
same,% Cell Death (± S.E.M.),[1]; 500 μM NMDA + 10 nM FK-506,68.5 ± 11.2%
same,% Cell Death (± S.E.M.),[1]; 500 μM NMDA + 25 nM FK-506,*67.2 ± 4.1%
same,% Cell Death (± S.E.M.),[1]; 500 μM NMDA + 50 nM FK-506,*61.9 ± 5.8%
same,% Cell Death (± S.E.M.),[1]; 500 μM NMDA + 100 nM FK-506,*40.0 ± 9.1%
same,% Cell Death (± S.E.M.),[1]; 500 μM NMDA + 500 nM FK-506,**29.7 ± 5.8%
same,% Cell Death (± S.E.M.),[1]; 500 μM NMDA + 1 μM FK-506,**29.2 ± 4.1%
same,% Cell Death (± S.E.M.),[1]; 500 μM Quisqualate + 500 nM FK-506,90.5 ± 4.4%
same,EC50,"[1]; Rattus norvegicus, applied 5 min prior to and during 5 min NMDA application, read-out: concentration at which 50% protection from NMDA neurotoxicity is evident",25 to 100 nM
same,lowest concentration providing significant protection from NMDA neurotoxicity,[1]; applied 5 min prior to and during 5 min NMDA application,25 nM
same,% Basal cGMP Level (± S.E.M.),[2]; 300 μM SNP + 100 nM FK-506,509.9 ± 63.4%
same,% Basal cGMP Level (± S.E.M.),[2]; 500 μM NMDA + 100 nM FK-506,*89.3 ± 25.4%
same,reduction of the NMDA stimulation of cGMP levels,[2]; FK-506 100 nM,approximately 80%
same,effect on NMDA elicited Ca2+ currents,[3],no effect
N[C@@H](CCC(=O)O)C(=O)O [Glutamate],% Cell Death (± S.E.M.),[1]; 500 μM Glutamate alone,76.0 ± 5.2%
"C=C(C)[C@H]1CN[C@H](C(=O)O)[C@H]1CC(=O)O [Kainate, kainate]",% Cell Death (± S.E.M.),"[1]; 100 μM Kainate alone, 24 hr exposure",83.2 ± 6.3%
same,"cell death elicited, compared with glutamate (500 μM)",[1]; kainate 100 μM,as much cell death as glutamate
"CN[C@H](CC(=O)O)C(=O)O [NMDA, N-methyl-D-aspartate]",% Cell Death (± S.E.M.),"[1]; 500 μM NMDA alone, 5 min exposure, counted 20-24 hr later",82.8 ± 4.3%
same,death of neurons,"[1]; 5 min exposure to NMDA, observed 24 hrs later",about 80%
same,% Basal cGMP Level (± S.E.M.),"[2]; 500 μM NMDA alone, 5 min, 100 μM IBMX",552.6 ± 95.6%
"N[C@@H](Cn1oc(=O)[nH]c1=O)C(=O)O [Quisqualate, quisqualate]",% Cell Death (± S.E.M.),"[1]; 500 μM Quisqualate alone, 5 min exposure",85.9 ± 6.0%
same,"cell death elicited, compared with glutamate (500 μM)",[1]; quisqualate 500 μM,as much cell death as glutamate
